According to publication PMC9571063 (Molecules, 2022):
Values joined by “and” are separate entries in the source; they are usually repeats but may differ in a detail not shown here. Equal entries are not always repeated. Structures can show the parent of a compound that is named as a salt. Where two headings read alike, the source gives them in different places.

Tests used:
HsDYRK1A = biological target: T1, HsDYRK1A (Homo sapiens, UniProt Q13627); assay: ADP-Glo kinase assay; assay type: biochemical; details: for remaining activity at 1 µM / remaining activity at 10 µM: n=2, read-out: % of residual activity Hs_DYRK1A; for IC50: 10 µM ATP, duplicate
T1 construct: host or cells: Sf9 insect cells (baculovirus)

[1] = cytotoxic assay, nuclei count (Hoechst, HCS); assay type: cell-based; details: human, Caco-2 cells (colorectal adenocarcinoma); 48 h treatment; read-out: Cytotoxic studies IC50 Caco2
Rn_DYRK1A = biological target: T2, Rn_DYRK1A (Rattus norvegicus, UniProt Q63470); assay: ADP-Glo kinase assay, primary screen; assay type: biochemical; details: n=2, read-out: % of residual activity Rn_DYRK1A
T2 construct: host or cells: bacteria

[2] = cytotoxic assay, nuclei count (Hoechst, HCS); assay type: cell-based; details: human, 48 h treatment
Hs_CK1ε = biological target: T3, Hs_CK1ε (Homo sapiens, UniProt P49674); assay: ADP-Glo kinase assay, primary screen; assay type: biochemical; details: n=2, read-out: % of residual activity Hs_CK1ε
T3 construct: host or cells: Sf9 insect cells (baculovirus)
T3 sequence (P49674 whole entry): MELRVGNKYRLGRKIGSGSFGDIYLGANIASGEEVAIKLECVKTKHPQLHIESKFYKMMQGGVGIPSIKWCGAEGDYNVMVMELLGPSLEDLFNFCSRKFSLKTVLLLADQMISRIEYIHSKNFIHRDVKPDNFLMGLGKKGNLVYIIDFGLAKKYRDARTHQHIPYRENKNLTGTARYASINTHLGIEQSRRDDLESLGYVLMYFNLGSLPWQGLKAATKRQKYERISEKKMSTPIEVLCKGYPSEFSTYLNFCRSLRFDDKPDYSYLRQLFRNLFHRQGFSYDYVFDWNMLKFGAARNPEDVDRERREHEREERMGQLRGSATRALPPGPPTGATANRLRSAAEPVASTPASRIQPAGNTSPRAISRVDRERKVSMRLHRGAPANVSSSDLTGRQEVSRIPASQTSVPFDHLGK

MmCLK1 = biological target: T4, MmCLK1 (Mus musculus, UniProt P22518); assay: ADP-Glo kinase assay; assay type: biochemical; details: for remaining activity at 1 µM / remaining activity at 10 µM: n=2, read-out: % of residual activity Mm_CLK1
T4 construct: host or cells: bacteria
T4 sequence (P22518 whole entry): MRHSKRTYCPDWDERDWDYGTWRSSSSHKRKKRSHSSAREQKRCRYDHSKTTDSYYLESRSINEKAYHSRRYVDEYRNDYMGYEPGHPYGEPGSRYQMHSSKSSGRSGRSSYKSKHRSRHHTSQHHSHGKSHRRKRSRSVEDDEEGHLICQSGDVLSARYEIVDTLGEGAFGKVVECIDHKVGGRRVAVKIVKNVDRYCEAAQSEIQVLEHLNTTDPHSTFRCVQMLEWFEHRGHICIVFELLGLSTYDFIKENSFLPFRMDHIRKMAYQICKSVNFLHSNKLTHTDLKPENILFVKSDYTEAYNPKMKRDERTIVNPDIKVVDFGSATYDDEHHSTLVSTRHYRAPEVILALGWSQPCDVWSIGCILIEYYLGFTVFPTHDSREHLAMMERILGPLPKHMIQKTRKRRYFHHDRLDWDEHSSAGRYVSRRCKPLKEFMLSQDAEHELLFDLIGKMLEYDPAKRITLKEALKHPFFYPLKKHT

HsCLK1 = biological target: T5, HsCLK1 (Homo sapiens, UniProt P49759); assay: ADP-Glo kinase assay; assay type: biochemical
T5 construct: host or cells: Sf9 insect cells (baculovirus)
T5 sequence (P49759 whole entry): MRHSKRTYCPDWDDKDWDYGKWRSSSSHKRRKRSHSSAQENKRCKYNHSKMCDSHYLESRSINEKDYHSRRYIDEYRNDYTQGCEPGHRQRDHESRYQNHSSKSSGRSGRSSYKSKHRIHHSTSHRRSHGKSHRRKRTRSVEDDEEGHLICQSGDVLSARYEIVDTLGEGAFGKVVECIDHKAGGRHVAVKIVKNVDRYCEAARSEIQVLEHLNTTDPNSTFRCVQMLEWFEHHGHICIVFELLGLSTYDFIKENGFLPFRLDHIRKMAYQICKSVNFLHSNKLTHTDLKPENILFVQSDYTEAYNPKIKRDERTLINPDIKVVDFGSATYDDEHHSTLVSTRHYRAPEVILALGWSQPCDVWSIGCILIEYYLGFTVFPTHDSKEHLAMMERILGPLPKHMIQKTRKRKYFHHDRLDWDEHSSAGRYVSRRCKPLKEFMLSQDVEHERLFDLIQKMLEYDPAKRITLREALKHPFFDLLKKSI

[3] = cytotoxic assay, nuclei count (Hoechst, HCS); assay type: cell-based; details: human, MCF7 cells (breast carcinoma); 48 h treatment; read-out: Cytotoxic studies IC50 MCF7
Hs_CDK5/p25 = biological target: T6, Hs_CDK5/p25 (Homo sapiens, UniProt Q00535); assay: ADP-Glo kinase assay, primary screen; assay type: biochemical; details: n=2, read-out: % of residual activity Hs_CDK5/p25
T6 construct: host or cells: bacteria
T6 sequence (Q00535 whole entry): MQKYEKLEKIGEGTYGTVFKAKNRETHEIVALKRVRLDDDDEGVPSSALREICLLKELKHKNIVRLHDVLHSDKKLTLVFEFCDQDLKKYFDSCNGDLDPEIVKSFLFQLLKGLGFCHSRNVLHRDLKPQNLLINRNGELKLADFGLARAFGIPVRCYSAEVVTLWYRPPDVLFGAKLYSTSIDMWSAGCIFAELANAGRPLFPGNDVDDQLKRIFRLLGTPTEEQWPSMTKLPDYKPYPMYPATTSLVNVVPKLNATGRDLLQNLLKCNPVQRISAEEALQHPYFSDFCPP
T6 sequence (Q15078 99-307 partner limits assumed): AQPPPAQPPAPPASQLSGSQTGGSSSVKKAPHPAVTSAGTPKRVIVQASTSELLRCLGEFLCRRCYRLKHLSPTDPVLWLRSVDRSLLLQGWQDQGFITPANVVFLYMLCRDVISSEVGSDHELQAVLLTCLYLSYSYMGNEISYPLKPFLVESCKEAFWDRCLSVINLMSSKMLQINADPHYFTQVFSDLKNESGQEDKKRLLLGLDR

Hs_PIM1 = biological target: T7, Hs_PIM1 (Homo sapiens, UniProt P11309); assay: ADP-Glo kinase assay, primary screen; assay type: biochemical; details: n=2, read-out: % of residual activity Hs_PIM1
T7 construct: host or cells: Sf9 insect cells (baculovirus)
T7 sequence (P11309 whole entry): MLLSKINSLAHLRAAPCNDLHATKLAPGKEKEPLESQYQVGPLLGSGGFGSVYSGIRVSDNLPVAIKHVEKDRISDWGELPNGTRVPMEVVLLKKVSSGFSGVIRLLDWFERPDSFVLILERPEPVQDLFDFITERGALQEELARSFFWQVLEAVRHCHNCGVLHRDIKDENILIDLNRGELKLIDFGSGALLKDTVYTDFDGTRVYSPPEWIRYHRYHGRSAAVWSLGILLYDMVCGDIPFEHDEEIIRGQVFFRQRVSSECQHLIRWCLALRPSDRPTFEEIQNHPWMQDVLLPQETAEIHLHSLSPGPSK

[4] = cytotoxic assay, nuclei count (Hoechst, HCS); assay type: cell-based; details: human, HuH7 cells (hepatocellular carcinoma); 48 h treatment; read-out: Cytotoxic studies IC50 HuH7
[5] = cytotoxic assay, nuclei count (Hoechst, HCS); assay type: cell-based; details: human, MDA-MB-231 cells (breast carcinoma); 48 h treatment; read-out: Cytotoxic studies IC50 MDA-MB-231
Hs_CDK9/CyclinT = biological target: T8, Hs_CDK9/CyclinT (Homo sapiens, UniProt P50750); assay: ADP-Glo kinase assay, primary screen; assay type: biochemical; details: n=2, read-out: % of residual activity Hs_CDK9/CyclinT
T8 construct: host or cells: Sf9 insect cells (baculovirus)
T8 sequence (P50750 whole entry): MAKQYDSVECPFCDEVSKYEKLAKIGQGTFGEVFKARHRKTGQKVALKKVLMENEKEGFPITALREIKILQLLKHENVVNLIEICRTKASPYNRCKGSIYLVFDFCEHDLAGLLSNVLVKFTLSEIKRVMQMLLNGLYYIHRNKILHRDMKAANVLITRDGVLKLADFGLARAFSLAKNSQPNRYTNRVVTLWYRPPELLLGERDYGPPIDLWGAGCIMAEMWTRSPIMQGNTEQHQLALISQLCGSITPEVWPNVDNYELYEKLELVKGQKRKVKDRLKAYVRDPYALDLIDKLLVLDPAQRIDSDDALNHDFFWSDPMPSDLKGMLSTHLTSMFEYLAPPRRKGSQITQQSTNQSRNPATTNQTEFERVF
T8 sequence (O60563 whole entry partner): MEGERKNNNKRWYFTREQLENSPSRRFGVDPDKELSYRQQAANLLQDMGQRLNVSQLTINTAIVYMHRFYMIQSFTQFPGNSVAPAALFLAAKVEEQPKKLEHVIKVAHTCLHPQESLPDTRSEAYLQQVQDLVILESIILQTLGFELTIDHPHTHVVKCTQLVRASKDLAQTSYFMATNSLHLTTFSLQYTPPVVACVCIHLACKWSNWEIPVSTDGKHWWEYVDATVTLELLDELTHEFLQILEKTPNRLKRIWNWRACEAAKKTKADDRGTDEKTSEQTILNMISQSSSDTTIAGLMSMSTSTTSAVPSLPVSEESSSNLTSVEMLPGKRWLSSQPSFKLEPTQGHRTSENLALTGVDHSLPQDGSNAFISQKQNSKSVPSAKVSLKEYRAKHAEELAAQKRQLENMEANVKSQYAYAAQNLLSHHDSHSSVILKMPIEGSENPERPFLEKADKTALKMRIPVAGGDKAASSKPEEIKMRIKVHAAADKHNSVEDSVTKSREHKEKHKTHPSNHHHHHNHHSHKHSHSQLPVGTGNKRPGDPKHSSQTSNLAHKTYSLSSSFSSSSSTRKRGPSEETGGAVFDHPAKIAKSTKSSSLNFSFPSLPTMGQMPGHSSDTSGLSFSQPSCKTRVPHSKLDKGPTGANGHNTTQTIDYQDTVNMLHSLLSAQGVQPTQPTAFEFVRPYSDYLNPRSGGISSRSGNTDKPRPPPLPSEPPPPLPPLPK

[6] = cytotoxic assay, nuclei count (Hoechst, HCS); assay type: cell-based, human; details: human, human skin fibroblasts (non-cancerous reference cells); 48 h treatment; some cells add low/moderate/high amplitude; read-out: Cytotoxic studies IC50 Fibroblasts
[7] = HCT116 cells (colorectal adenocarcinoma), read-out: Cytotoxic studies IC50 HCT116
[8] = MDA-MB-468 cells (breast carcinoma), read-out: Cytotoxic studies IC50 MDA-MB-468
[9] = mouse CLK1 orthologue, read-out: IC50 MmCLK1
[10] = 10 µM ATP, duplicate, read-out: IC50 HsCLK1

| SMILES | remaining activity at 1 µM (HsDYRK1A) [%] | remaining activity at 10 µM (HsDYRK1A) [%] | IC50 at 48 h [1] [nM] | remaining activity at 1 µM (Rn_DYRK1A) [%] | remaining activity at 10 µM (Rn_DYRK1A) [%] | IC50 at 48 h [2, 7] [nM] | IC50 at 48 h [2, 8] [nM] | remaining activity at 1 µM (Hs_CK1ε) [%] | remaining activity at 10 µM (Hs_CK1ε) [%] | remaining activity at 1 µM (MmCLK1) [%] | remaining activity at 10 µM (MmCLK1) [%] | IC50 (MmCLK1; [9]) [nM] | IC50 (HsCLK1; [10]) | IC50 at 48 h [3] [nM] | remaining activity at 1 µM (Hs_CDK5/p25) [%] | remaining activity at 10 µM (Hs_CDK5/p25) [%] | remaining activity at 1 µM (Hs_PIM1) [%] | remaining activity at 10 µM (Hs_PIM1) [%] | IC50 at 48 h [4] [nM] | IC50 at 48 h [5] [nM] | other results |
| --- | --- | --- | --- | --- | --- | --- | --- | --- | --- | --- | --- | --- | --- | --- | --- | --- | --- | --- | --- | --- | --- |
| Cc1ccc(-n2cc(COc3cccc4cnc(Nc5cc(Cl)cc(Cl)c5)nc34)nn2)c([N+](=O)[O-])c1 [7b, N-(3,5-dichlorophenyl)-8-((1-(4-methyl-2-nitrophenyl)-1H-1,2,3-triazol-4-yl)methoxy)quinazolin-2-amine] | ≥ 100 | 80 | > 25000 | 87 | 95 | > 25000 | > 25000 | 81 | 47 | 14 | 17 | 280 to 369 | 85 nM | 24000 | 93 | 68 | 87 | 84 | > 25000 | > 25000 | activity on the human DYRK1A (HsDYRK1A): completely inactive; IC50 (HsDYRK1A): > 100000 nM; remaining activity at 1 µM (Hs_CDK9/CyclinT): 80%; remaining activity at 10 µM (Hs_CDK9/CyclinT): 34%; IC50 at 48 h [6]: > 25000 nM |
| O=[N+]([O-])c1cc(Br)ccc1-n1cc(COc2cccc3cnc(Nc4cccc(Cl)c4)nc23)nn1 [12d, N-(3-Chlorophenyl)-8-((1-(4-bromo-2-nitrophenyl)-1H-1,2,3-triazol-4-yl)methoxy)quinazolin-2-amine] | ≥ 100 | 77 | > 25000 | ≥ 100 | 76 | > 25000 | > 25000 | ≥ 100 | 90 | 27 | 22 | 391 | 200 to 300 nM and 378 nM | > 25000 | ≥ 100 | ≥ 100 | 85 | 70 | 2000 | > 25000 | remaining activity at 1 µM (Hs_CDK9/CyclinT): 85%; remaining activity at 10 µM (Hs_CDK9/CyclinT): 43%; IC50 at 48 h [6]: 13000 nM |
| O=[N+]([O-])c1cc(CO)ccc1-n1cc(COc2cccc3cnc(Nc4cccc(Cl)c4)nc23)nn1 [12e, 4-(4-(((2-((3-Chlorophenyl)amino)quinazolin-8-yl)oxy)methyl)-1H-1,2,3-triazol-1-yl)-3-nitrobenzyl alcohol] | 84 | 31 | 7000 | 80 | 34 | 3000 | 4000 | ≥ 100 | 52 | 74 | 35 | 191 | 146 nM | 4000 | ≥ 100 | 54 | 96 | 69 | 3000 | 6000 | IC50 (HsDYRK1A): 2300 nM and 2330 nM; IC50 (HsCLK1; read-out: IC50 human CLK1): 150 to 200 nM; remaining activity at 1 µM (Hs_CDK9/CyclinT): 74%; remaining activity at 10 µM (Hs_CDK9/CyclinT): 21%; IC50 at 48 h [6]: 6000 nM |
| COC(=O)c1ccc(-n2cc(COc3cccc4cnc(Nc5cccc(Cl)c5)nc34)nn2)c([N+](=O)[O-])c1 [12f, Methyl 4-(4-(((2-((3-chlorophenyl)amino)quinazolin-8-yl)oxy)methyl)-1H-1,2,3-triazol-1-yl)-3-nitrobenzoate] | ≥ 100 | 93 | > 25000 | ≥ 100 | 83 | > 25000 | > 25000 | ≥ 100 | 95 | 28 | 18 | 245 | 293 nM | > 25000 | ≥ 100 | 61 | 73 | 66 | > 25000 | > 25000 | remaining activity at 1 µM (Hs_CDK9/CyclinT): 73%; remaining activity at 10 µM (Hs_CDK9/CyclinT): 45%; IC50 at 48 h [6]: > 25000 nM |
| O=C(O)c1ccc(-n2cc(COc3cccc4cnc(Nc5cccc(Cl)c5)nc34)nn2)c([N+](=O)[O-])c1 [12g, 4-(4-(((2-((3-Chlorophenyl)amino)quinazolin-8-yl)oxy)methyl)-1H-1,2,3-triazol-1-yl)-3-nitrobenzoic acid] | 86 | 50 | > 25000 | 61 | 39 | > 25000 | > 25000 | 98 | 72 | 13 | 5 | 24 | 4 nM | > 25000 | 45 | 97 | 66 | 31 | > 25000 | > 25000 | IC50 (HsDYRK1A): 3940 nM; remaining activity at 1 µM (Hs_CDK9/CyclinT): 38%; remaining activity at 10 µM (Hs_CDK9/CyclinT): 21%; IC50 at 48 h [6]: > 25000 nM |
| N[C@H]1CC[C@@H](n2cc(COc3cccc4cnc(Nc5cc(Cl)cc(Cl)c5)nc34)nn2)CC1 [16b, 8-((1-((cis)-4-Aminocyclohexyl)-1H-1,2,3-triazol-4-yl)methoxy)-N-(3,5-dichlorophenyl)quinazolin-2-amine hydrochloride] | 85 | 38 | 3000 | 71 | 20 | 2400 | 1000 | 82 | 24 | 19 | 8 | 180 | 53 nM | 3000 | 87 | 44 | 69 | 15 | 2000 | 2000 | IC50 (HsDYRK1A): 1900 nM; remaining activity at 1 µM (Hs_CDK9/CyclinT): 61%; remaining activity at 10 µM (Hs_CDK9/CyclinT): 18%; IC50 at 48 h [6]: 2000 nM |
| Cc1ccc(-n2cc(COc3cccc4cnc(Nc5cccc(Cl)c5)nc34)nn2)c([N+](=O)[O-])c1 [DB18] | – | – | – | – | – | – | – | – | – | – | – | – | – | – | – | – | – | – | – | – | IC50 (MmCLK1): 120 nM |
